Results reported in ChEMBL document CHEMBL5241094 (J Med Chem, 2021).
Values after ≈ are worked out from the molar mass of the structure shown.

Legend:
[1] = Oral bioavailability in C57/BL6 mouse at 30 mg/kg administered as homogeneous suspension in 0.5% methocel/0.25% tween20 in 50 mM acetate buffer (pH 5.5) and measured after 2 hrs by HPLC-MS/MS analysis; assay type: ADME, organism-based; conditions: in vivo
in vivo [2] = conditions: C57BL/6, mouse, iv, 0.2 mg/kg
in vivo [3] = conditions: C57BL/6, mouse, iv, 0.2 mg/kg; remark: listed apart in the source
physchem = conditions: PBS buffer, pH 7.4

SMILES | bioavailability [1] [%] | clearance at 2 h (in vivo [2]) [mL/min/kg] | Vd at 2 h (in vivo [3]) [L/kg] | solubility at 24 h (physchem) [µg/mL]
Cc1cc(C#Cc2ccccc2NS(=O)(=O)c2c(C)ccc3cccnc23)cnc1C(=O)O | 45 | 31.7 | 1.9 | 384 (≈ 839 µM)
CCOc1ccc(S(=O)(=O)Nc2ccccc2C#Cc2ccc(C(=O)O)nc2)c2ncccc12 |  | 10 | 0.4 | 
COc1ccc(S(=O)(=O)Nc2ccccc2C#Cc2ccc(C(=O)O)nc2)c2ncccc12 |  | 6.67 | 0.6 | 445 (≈ 968 µM)
